Here are results for 40 molecules from patent publication US20110183978A1, “Phenylpyri(mi)dinylazoles” (Bayer CropScience AG, priority 2009, published 2011).

The test system of one series is Sphaerotheca fuliginea. Briefly: Example L: in vivo test on Sphaerotheca fuliginea (powdery mildew on cucumber/protective). Conditions: Podosphaera fuliginea, 168 h, cucumber, protective, assessment 7 days after inoculation, read-out: % Wirkungsgrad. On the procedure: Solvent: 49 parts by weight N,N-dimethylformamide Emulsifier: 1 part by weight alkylaryl polyglycol ethers For the preparation of a suitable active substance preparation, 1 part by weight of active substance is mixed with the stated quantities of solvent and emulsifier and the concentrate is diluted to the desired concentration with water. For the testing for protective activity, young cucumber plants are sprayed with the active substance preparation at the stated application dosage. One day after the treatment, the plants are inoculated with a spore suspension of Sphaerotheca fuliginea. Next, the plants are placed in a greenhouse at 70% relative atmospheric humidity and a temperature of 23° C. 7 days after the inoculation, the assessment takes place.

The next series is described as follows: physchem. Conditions: LogPA.
In the next series the test system is Alternaria solani. The experiment in a line: Example M: in vivo test on Alternaria solani (leaf blotch disease/tomato/protective). Particulars: 168 h, tomato, protective, 500 ppm active substance, assessed 7 days after inoculation, read-out: % Wirkungsgrad (activity level). In a few lines:
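Alternaria solani infection on tomato scored 7 days post-inoculation. Before inoculation, young plants received a protective spray at the stated application dose; formulation was compound mixed with N,N-dimethylformamide and emulsifier, water-diluted.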

For orientation: chromatographic logP means a lipophilicity value derived from retention on a column. Read a high chromatographic logP as higher lipophilicity.

Turning to `CCC(=O)Nc1cc(-c2cn(CC3OCCO3)nc2-c2ccc(F)cc2)ccn1` [Compound 278], the values for the pest or weed control at 500 ppm with Sphaerotheca fuliginea and in the series with Alternaria solani were 89% and 95%, respectively. The chromatographic logP in the series “physchem” amounted to 1.59.
The like results for `CC(C)Cn1cc(-c2ccnc(NC3COC3)n2)c(-c2ccc(F)cc2)n1` [Compound 279] were, in that order, 100%, 70% and 2.35.
For the molecule `CC(C)n1cc(-c2ccnc3[nH]cnc23)c(-c2ccc(F)cc2)n1` [Compound 280], the pest or weed control at 500 ppm with Sphaerotheca fuliginea is 93%; with Alternaria solani it was 95%. In the series “physchem”, this molecule registered a chromatographic logP of 1.82.
The like results for `CC(C)Cn1cc(-c2ccnc(NC3CC3)n2)c(-c2ccc(F)cc2)n1` [Compound 281] were, in that order, 94%, 95% and 2.41.
For `Cc1cn(-c2cc(-c3cn(C(C)C)nc3-c3ccc(F)cc3)ccn2)cn1` [Compound 283] the same measures were 78%, 95% and 2.05.
For `CC(C)Cn1cc(-c2ccnc(NC(C)(C)C)n2)c(-c2ccc(F)cc2)n1` [Compound 284] the same measures were 91%, 100% and 2.94.
On to `COCC(C)Nc1nccc(-c2cn(CC(C)C)nc2-c2ccc(F)cc2)n1` (stereo not drawn) [Compound 285], for which the pest or weed control at 500 ppm with Sphaerotheca fuliginea was determined as 89%; in the series on Alternaria solani, 95%. The molecule also registered a chromatographic logP in “physchem” of 2.39.
For `CCC(C)Nc1nccc(-c2cn(CC(C)C)nc2-c2ccc(F)cc2)n1` (stereo not drawn) [Compound 286] the same measures were 89%, 90% and 2.68.
For `CCn1cc(-c2ccnc(NC(=O)C(C)C)c2)c(-c2ccc(F)cc2)n1` [Compound 290] the same measures were 100%, 100% and 2.14.
For `CCn1cc(-c2ccnc(NC(=O)CC3CC3)c2)c(-c2ccc(F)cc2)n1` [Compound 291] the same measures were 95%, 100% and 2.29.
As to `CCCn1cc(-c2ccnc(NC(=O)CC)c2)c(-c2ccc(F)cc2)n1` [Compound 292], the pest or weed control at 500 ppm in the series with Sphaerotheca fuliginea was 95%; with Alternaria solani, 100%. In addition, the chromatographic logP in “physchem” was found to be 2.15.
On to `CCCn1cc(-c2ccnc(NC(=O)COC)c2)c(-c2ccc(F)cc2)n1` [Compound 293], for which the results for the pest or weed control at 500 ppm in the series with Sphaerotheca fuliginea and with Alternaria solani were 94% and 100%, respectively. Further, the chromatographic logP in the series “physchem” worked out at 2.58.
For `CCCn1cc(-c2ccnc(NC(=O)C(C)C)c2)c(-c2ccc(F)cc2)n1` [Compound 294] the same measures were 98%, 100% and 2.49.
For `CCCn1cc(-c2ccnc(NC(=O)CC3CC3)c2)c(-c2ccc(F)cc2)n1` [Compound 295] the same measures were 94%, 100% and 2.66.
For the molecule `CCC(=O)Nc1cc(-c2cn(C)nc2-c2ccc(F)cc2)ccn1` [Compound 296], the figures for the pest or weed control at 500 ppm in the series on Sphaerotheca fuliginea and in the series with Alternaria solani were 84% and 100%, respectively. In addition, in the series “physchem”, the chromatographic logP came out at 1.56.
With `COCC(=O)Nc1cc(-c2cn(C)nc2-c2ccc(F)cc2)ccn1` [Compound 297], the pest or weed control at 500 ppm with Sphaerotheca fuliginea came out at 90%; in the series on Alternaria solani, 100%. In addition, the chromatographic logP in “physchem” came to 1.89.
For `CC(C)C(=O)Nc1cc(-c2cn(C)nc2-c2ccc(F)cc2)ccn1` [Compound 298] the same measures were 100%, 80% and 1.83.
The like results for `Cn1cc(-c2ccnc(NC(=O)CC3CC3)c2)c(-c2ccc(F)cc2)n1` [Compound 299] were, in that order, 84%, 100% and 1.98.
The like results for `CCC(=O)Nc1cc(-c2cn(CCSC)nc2-c2ccc(F)cc2)ccn1` [Compound 300] were, in that order, 90%, 80% and 2.12.
On to `CCC(=O)Nc1cc(-c2cn(C(C)C3CC3)nc2-c2ccc(F)cc2)ccn1` (stereo not drawn) [Compound 301], for which the pest or weed control at 500 ppm in the series with Sphaerotheca fuliginea and in the series with Alternaria solani was 95% throughout. The molecule also registered a chromatographic logP in the series “physchem” of 2.54.
As to `CCC(=O)Nc1cc(-c2cn(CCC#N)nc2-c2ccc(F)cc2)ccn1` [Compound 303], the pest or weed control at 500 ppm is 95% in the series on Sphaerotheca fuliginea and 100% in the series with Alternaria solani. The chromatographic logP in “physchem” stood at 1.63.
The like results for `CSCCn1cc(-c2ccnc(NC(=O)C(C)C)c2)c(-c2ccc(F)cc2)n1` [Compound 306] were, in that order, 94%, 95% and 2.44.
The like results for `CC(C)C(=O)Nc1cc(-c2cn(C(C)C3CC3)nc2-c2ccc(F)cc2)ccn1` (stereo not drawn) [Compound 307] were, in that order, 100%, 100% and 2.9.
For `CC(C)C(=O)Nc1cc(-c2cn(CCC#N)nc2-c2ccc(F)cc2)ccn1` [Compound 309] the same measures were 100%, 100% and 1.91.
As for `CCC(=O)Nc1cc(-c2cn(C(C)CC#N)nc2-c2ccc(F)cc2)ccn1` (stereo not drawn) [Compound 312], the pest or weed control at 500 ppm in the series with Sphaerotheca fuliginea and with Alternaria solani was 100% each time. In the series “physchem”, this molecule gave a chromatographic logP of 1.87.
In the case of `COCC(=O)Nc1cc(-c2cn(C(C)CC#N)nc2-c2ccc(F)cc2)ccn1` (stereo not drawn) [Compound 313], the results for the pest or weed control at 500 ppm with Sphaerotheca fuliginea and in the series on Alternaria solani were 98% and 95%, respectively. In “physchem”, this molecule came in with a chromatographic logP of 2.17.
As for `CC(C)C(=O)Nc1cc(-c2cn(C(C)CC#N)nc2-c2ccc(F)cc2)ccn1` (stereo not drawn) [Compound 314], the pest or weed control at 500 ppm with Sphaerotheca fuliginea and in the series with Alternaria solani was 100% throughout. For the same molecule, the chromatographic logP in the series “physchem” is 1.29.
Take `CC(CC#N)n1cc(-c2ccnc(NC(=O)CC3CC3)c2)c(-c2ccc(F)cc2)n1` (stereo not drawn) [Compound 315]: the pest or weed control at 500 ppm in the series with Sphaerotheca fuliginea and in the series on Alternaria solani was 95% each time. Further, the chromatographic logP in “physchem” was 2.28.
Consider `CCC(=O)Nc1cc(-c2c(-c3ccc(F)cc3)nn(C)c2OC(F)F)ccn1` [Compound 316], for which the pest or weed control at 500 ppm in the series with Sphaerotheca fuliginea came to 75%; with Alternaria solani it was 100%. This molecule registered a chromatographic logP in the series “physchem” of 2.33.
The like results for `CCC(=O)Nc1cc(-c2cn(C3CC3)nc2-c2ccc(F)cc2)ccn1` [Compound 320] were, in that order, 94%, 95% and 1.97.
For `CC(C)C(=O)Nc1cc(-c2cn(C3CC3)nc2-c2ccc(F)cc2)ccn1` [Compound 322], the pest or weed control at 500 ppm with Sphaerotheca fuliginea and in the series with Alternaria solani was 95% in each case. The molecule further returned a chromatographic logP in the series “physchem” of 2.32.
For `O=C(CC1CC1)Nc1cc(-c2cn(C3CC3)nc2-c2ccc(F)cc2)ccn1` [Compound 323], the pest or weed control at 500 ppm in the series with Sphaerotheca fuliginea was 86%; in the series with Alternaria solani it was 95%. Besides, in the series “physchem”, the chromatographic logP was determined as 2.48.
With `CCn1cc(-c2ccnc(NC(=O)[C@@H]3C[C@H]3c3ccccc3)c2)c(-c2ccc(F)cc2)n1` [Compound 337], the figures for the pest or weed control at 500 ppm with Sphaerotheca fuliginea and with Alternaria solani were 88% and 95%, respectively. The same molecule displayed a chromatographic logP in the series “physchem” of 3.06.
The like results for `CCn1cc(-c2ccnc(NC(=O)CC3CCCC3)c2)c(-c2ccc(F)cc2)n1` [Compound 338] were, in that order, 91%, 80% and 3.87.
For `CCn1cc(-c2ccnc(NC(=O)CC(C)C)c2)c(-c2ccc(F)cc2)n1` [Compound 339] the same measures were 95%, 95% and 3.47.
For `CCC(C)C(=O)Nc1cc(-c2cn(CC)nc2-c2ccc(F)cc2)ccn1` (stereo not drawn) [Compound 340], the pest or weed control at 500 ppm in the series on Sphaerotheca fuliginea and in the series with Alternaria solani was 95% throughout. The chromatographic logP in the series “physchem” is 2.42.
`CCn1cc(-c2ccnc(NC(=O)C3CC3C)c2)c(-c2ccc(F)cc2)n1` (stereo not drawn) [Compound 341]: the pest or weed control at 500 ppm with Sphaerotheca fuliginea turned out to be 100%; with Alternaria solani, 95%. The chromatographic logP in “physchem” worked out at 2.16.
With `CCn1cc(-c2ccnc(NC(C)=O)c2)c(-c2ccc(F)cc2)n1` [Compound 342], the pest or weed control at 500 ppm in the series with Sphaerotheca fuliginea is 94%; in the series on Alternaria solani, 95%. This molecule returned a chromatographic logP in “physchem” of 1.57.
The like results for `CC(C)CC(=O)Nc1cc(-c2cn(C)nc2-c2ccc(F)cc2)ccn1` [Compound 347] were, in that order, 95%, 95% and 2.12.
For `CCC(C)C(=O)Nc1cc(-c2cn(C)nc2-c2ccc(F)cc2)ccn1` (stereo not drawn) [Compound 348] the same measures were 95%, 95% and 2.14.
